Laboratory results taken from patent publication US20230355536A1, “OZONE-BASED LOW TEMPERATURE SILICON OXIDE COATING FOR PHARMACEUTICAL APPLICATIONS” (Applied Materials, Inc., priority 2022, published 2023).

How the values were obtained:
Type in all cases: physicochemical
[1] = HPLC analysis of API integrity after ozone treatment; details: ozone generated with oxygen flow rate of 10, 30 and 50 sccm
Experimental: To test whether ozone treatment will affect the integrity of the API, the API (acetaminophen) was treated with ozone at various concentrations. Here, ozone was created by an ozone generator with various oxygen flow rates. The lower the oxygen flow rate, the high the ozone concentration is. Specifically, the API (acetaminophen) was treated with ozone generated with an oxygen flow rate of 10 sccm, 30 sccm and 50 sccm. FIGS. 8A-8D show the HPLC analysis of the API (acetaminophen) after ozone treatment. […] As shown in FIGS. 8A-8D, there were no new peaks (impurity) generated after ozone exposure with as low as 10 sccm oxygen flow rate (highest O3 concentration)

[2] = Wetting/dispersity of particles in DI water; details: acetaminophen particles dissolved into DI water
Experimental: The coated API (acetaminophen) particles were dissolved into DI water to test the wetting/dispersity properties of these particles.
As a control group, API (acetaminophen) was also treated with silane to apply a monolayer of silane.

[3] = FTIR spectrum of API particles before and after coating process; details: coated versus uncoated API particles
Source text: FIGS. 2A-2B (FIG. 2B is a zoom-in image of FIG. 2A) show the FTIR spectrum of the coated and uncoated acetaminophen API particles.
FIGS. 6A-6B (FIG. 6B is a zoom-in image of FIG. 6A) show the FTIR spectrum of the coated and uncoated theophylline API particles.
FIGS. 9A-9B (FIG. 9B is a zoom-in image of FIG. 9A) show the FTIR spectrum of the coated and uncoated API-1 particles.

new peaks (impurity) in HPLC after ozone exposure [1]	wetting/dispersity [2]	change in FTIR signals before and after the coating process [3]	SMILES
no new peaks	poor wetting/dispersity	no significant change	CC(=O)Nc1ccc(O)cc1 [acetaminophen]
–	–	no significant change	Cn1c(=O)c2[nH]cnc2n(C)c1=O [theophylline, reference compound]
